In patent US12215387B2, “Biomarker predictive of responsiveness to alpha 7 nicotinic acetylcholine receptor activator treatment” (Novartis AG, priority 2012, dated 2025):

Test system: patients with schizophrenia
Experiment: Continuous Paired Associates Learning (CPAL) test of the CogState schizophrenia battery, by CYP1A2 rs2069514 genotype
Type: in vivo, human
From the text: To measure the effect of alpha 7 nicotinic acetylcholine receptor activator treatment on the cognitive skills of schizophrenic patients, an adequate cognitive test battery (CogState™) with short duration (as described in detail below) was applied allowing multiple time points measurements during the treatment period (Pietrzak, et al 2009; Maruff, et al 2009).
The CPAL task is a validated test that assesses visual episodic memory (associate learning). This test has been used previously in schizophrenia. Before beginning this task, the test supervisor reads the full instructions to the patient from the test supervisor script. On the CPAL test, participants must learn a series of associations between a set of difficult to verbalize patterns and locations. In the presentation phase of the task, the pattern appears at the location and the subject is required to acknowledge that they have seen the pattern by touching the location at which it appears. At this stage of the task the patient will also see that there are two locations at which no target appears (distractor locations). Patterns are presented, in random order. However, once presented the pattern remains at the same location throughout the task. In the learning phase of the task, patients must place each of the eight patterns in their correct locations. They must do this in six rounds. For the first round, one of the patterns is presented in the centre location and the subject is required to remember the location at which it had been shown. They indicate the location by touching it. If they touch the incorrect location, a visual and audible signal occurs (a red cross appears over the location and a buzzer sound is presented). The patient is then required to choose a second location. This process continues until the patient has correctly placed all […] of the targets in their correct locations. Once all eight patterns have been placed correctly, the second round begins. In the second round the patterns remain in the same locations, but their order of presentation in the centre of the screen is different to that of the first round (randomized). The process of placing each target in the correct location proceeds as it did in the first round. When the second round is complete, the same process is repeated as the rounds progress the number of errors made in placing the patterns in their correct locations reduces. Administration time is approximately 5 minutes in healthy volunteers. Patients with Schizophrenia would be expected to complete the task within about 12 minutes.
The assessment of activity was obtained from a statistical analysis of the post dose Area Under the Effect Curve (AUEC) 4-10 on CPAL as follows: variables were separately analyzed by means of a linear mixed effect model adjusted for the period-specific baseline value for the scale, the treatment group, the period, and the sequence as fixed effects, and for the patient as a random effect. The period-specific baseline value for the scale was obtained from the average of the period-specific Day −1 values and from the pre-dose value. The mean treatment difference (and its 95% CI) between each B-5 dose group and placebo was obtained from the model. The effect size was obtained by dividing the mean treatment difference (and its 95% CI) by the square root of twice the estimated variance of the residual error. Activity, as defined in the paragraph above, was assessed from the effect size of CPAL.
In an attempt to identify a subset of patients who respond to B-5 treatment, a study in a population of 29 individuals using the CPAL assessment was conducted. The purpose was to investigate the relationship between the genetic variants rs2069514 (SEQ IDs NO. 1 and 2) in the CYP1A2 gene and B-5 efficacy in the study. In the study, B-5 mono-fumarate was used in the form of hard gelatin capsules as described in Example E. […]

## Cc1ccc(-c2ccc(O[C@H]3CN4CCC3CC4)cn2)cc1 [B-5, (R)-3-(6-p-tolyl-pyridin-3-yloxy)-1-aza-bicyclo[2.2.2]octane]
CYP1A2 genotype GG (n = 15), B-5 2 mg
  CPAL - AUC4-10 Estimated mean AUC 4-10: 414.75 Total # errors × Hours
CYP1A2 genotype GG (n = 15), B-5 2 mg, P-value 0.59
  CPAL - AUC4-10 Placebo - B-5 Effect size: 0.15
CYP1A2 genotype GG (n = 15), B-5 15 mg
  CPAL - AUC4-10 Estimated mean AUC 4-10: 481.4 Total # errors × Hours
CYP1A2 genotype GG (n = 15), B-5 15 mg, P-value 0.6706
  CPAL - AUC4-10 Placebo - B-5 Effect size: −0.12
CYP1A2 genotype GG (n = 15), B-5 100 mg
  CPAL - AUC4-10 Estimated mean AUC 4-10: 457.45 Total # errors × Hours
CYP1A2 genotype GG (n = 15), B-5 100 mg, P-value 0.9344
  CPAL - AUC4-10 Placebo - B-5 Effect size: −0.02
CYP1A2 genotypes AA + AG (n = 14), B-5 2 mg
  CPAL - AUC4-10 Estimated mean AUC 4-10: 411.15 Total # errors × Hours
CYP1A2 genotypes AA + AG (n = 14), B-5 2 mg, P-value 0.018
  CPAL - AUC4-10 Placebo - B-5 Effect size: 0.68
CYP1A2 genotypes AA + AG (n = 14), B-5 15 mg
  CPAL - AUC4-10 Estimated mean AUC 4-10: 372.82 Total # errors × Hours
CYP1A2 genotypes AA + AG (n = 14), B-5 15 mg, P-value 0.0023
  CPAL - AUC4-10 Placebo - B-5 Effect size: 0.91
CYP1A2 genotypes AA + AG (n = 14), B-5 100 mg
  CPAL - AUC4-10 Estimated mean AUC 4-10: 384.9 Total # errors × Hours
CYP1A2 genotypes AA + AG (n = 14), B-5 100 mg, P-value 0.0043
  CPAL - AUC4-10 Placebo - B-5 Effect size: 0.83
Patients homozygous rs2069514-G/G
  improvement on cognitive function: did not show any significant improvement
Patients rs2069514 A/A or A/G, 2 mg p=0.018, 15 mg p=0.0023, 100 mg p=0.0043
  response on visual learning and memory (CPAL) compared to placebo: significant response
